The values below come from the NIST ThermoML archive (doi:10.1016/j.jct.2014.01.031).

± gives the expanded uncertainty stated by the source.

The nature of data set [1]: xn = mol fraction of the nth substance listed. The following applies: 298.15 K, 101 kPa, Liquid; for electrical conductivity: Alternating current cell with electrodes; for viscosity: Falling or rolling sphere viscometry.
For data set [2] the following is noted: 298.15 K, 101 kPa, Liquid; for electrical conductivity: Alternating current cell with electrodes; for viscosity: Falling or rolling sphere viscometry; for self diffusion coefficient: PFG NMR Spectroscopy.

As a reminder, the viscosity is the resistance of a fluid to flow. In the case of `CCn1cc[n+](C)c1.COS(=O)(=O)[O-]` [1-ethyl-3-methylimidazolium methylsulfate] + O, the electrical conductivity was found to be 0.547 ± 0.007 S/m in data set [1] (x2 = 0); 0.909 ± 0.011 S/m in data set [1] (x2 = 0.2542); 1.6 ± 0.019 S/m in data set [1] (x2 = 0.4994); 3.16 ± 0.038 S/m in data set [1] (x2 = 0.7519); 3.99 ± 0.048 S/m in data set [1] (x2 = 0.8053); 6.23 ± 0.075 S/m in data set [1] (x2 = 0.9249). For the same molecule, in data set [1] (x2 = 0.9737), the electrical conductivity came out at 4.58 ± 0.055 S/m. In addition, the viscosity is listed as 81.4 ± 2.7 mPa·s in data set [1] (x2 = 0); 39.7 ± 1.3 mPa·s in data set [1] (x2 = 0.2542); 20.2 ± 0.7 mPa·s in data set [1] (x2 = 0.4994); 8.59 ± 0.31 mPa·s in data set [1] (x2 = 0.7519); 6.62 ± 0.25 mPa·s in data set [1] (x2 = 0.8053); 2.59 ± 0.1 mPa·s in data set [1] (x2 = 0.9249). Also, the viscosity in data set [1] (x2 = 0.9737) came to 1.43 ± 0.06 mPa·s.
`O` [water] + CCCCn1cc[n+](C)c1.COS(=O)(=O)[O-]: the viscosity in data set [1] (x1 = 1) is 0.89 ± 0.04 mPa·s.
In the case of `CCCCn1cc[n+](C)c1.COS(=O)(=O)[O-]` [1-butyl-3-methylimidazolium methyl sulfate] + O, the electrical conductivity in data set [1] (x2 = 0) was 0.126 ± 0.002 S/m; in data set [1] (x2 = 0.1999), 0.247 ± 0.003 S/m; in data set [1] (x2 = 0.4037), 0.4 ± 0.005 S/m; in data set [1] (x2 = 0.617), 0.799 ± 0.01 S/m; in data set [1] (x2 = 0.7937), 1.77 ± 0.021 S/m; in data set [1] (x2 = 0.9437), 3.42 ± 0.041 S/m. The electrical conductivity in data set [1] (x2 = 0.992) was determined as 1.92 ± 0.044 S/m; in data set [1] (x2 = 0.9977), 0.849 ± 0.039 S/m. For the same molecule, the viscosity is listed as 223 ± 12 mPa·s in data set [1] (x2 = 0); 112 ± 4 mPa·s in data set [1] (x2 = 0.1999); 63.1 ± 2.1 mPa·s in data set [1] (x2 = 0.4037); 27.6 ± 1 mPa·s in data set [1] (x2 = 0.617); 11.5 ± 0.4 mPa·s in data set [1] (x2 = 0.7937).
`O` [water] + CCn1cc[n+](C)c1.COS(=O)(=O)[O-]: the viscosity in data set [1] (x1 = 1) worked out at 0.89 ± 0.04 mPa·s.
As for `CCCCn1cc[n+](C)c1.COS(=O)(=O)[O-]` [1-butyl-3-methylimidazolium methyl sulfate], in data set [2], the electrical conductivity was found to be 0.126 ± 0.002 S/m, the viscosity turned out to be 223 ± 12 mPa·s and the self diffusion coefficient was 1.3e-11 m2/s.
For `CCn1cc[n+](C)c1.COS(=O)(=O)[O-]` [1-ethyl-3-methylimidazolium methylsulfate] the same measures were 0.547 ± 0.007 S/m, 81.4 ± 2.7 mPa·s and 4.6e-11 m2/s.
For `O` [water], in data set [2], the viscosity is recorded as 0.89 ± 0.04 mPa·s and the self diffusion coefficient came out at 2.3e-09 m2/s.
